Measurements reported in US5698552A, “Hetrazepinoid amides” (Boehringer Ingelheim KG, priority 1990, dated 1997).

How the values were obtained:
[1] = tested on: PAF-induced platelet aggregation; assay: Inhibition of PAF-induced platelet aggregation in vitro (Born and Cross method); format: cell-based, healthy male and female donors (human); settings: PAF 5 ×10^-8 M; human platelet-rich plasma (TRP); n=4; read-out: PAF-induced platelet aggregation (inhibition, IC50 = concentration at 50% aggregation inhibition)
Method: 200 ml samples of blood were taken from a non-obstructed vein, with the aid of a plastic syringe containing 3.8% sodium citrate solution, from healthy male and female donors aged from 18 to 35 years who had not taken any medicaments (aspirin or other non-steroid anti-inflammatories) for several days before the blood withdrawal. The ratio of sodium citrate solution:blood was 1:9. The citrated blood was centrifuged in plastic tubes at 150 ×g (=1,200 rpm) at room temperature for 20 min (Heraeus Christ bench centrifuge 124).
The platelet aggregation was measured in vitro by the method of Born and Cross (1963), an aggregation inducer (PAF) being added to the TRP, while stirring constantly. For the measurement, 0.8 ml TRP and 0.2 ml modified Tyrode's solution (see below) were introduced into 1 ml plastic cells, each of which contained a small metal pin (stirrer, 1,000 rpm). The test substance was added in a volume of 10 μl for 2 to 3 min before inducing the aggregation. Either DMSO and water or a dilute HCl solution was used as the solvent. The control batches contained the corresponding volume of these solvents. After recording the initial absorption (2-3 min), aggregation was induced. PAF (5 ×10^-8 M; Bachem Feinchemikalien) was introduced into the cell in a volume of 10 μl.
The modified Tyrode's solution had the following composition: 136.9 mM NaCl; 2.68 mM KCl; 0.5 mM MgCl2; 1.8 mM CaCl2; 0.42 mM NaH2 PO4; 5.55 mM glucose and 11.9 mM NaHCO3.
To evaluate substance effects, the maximum of the first aggregation wave was used. The maximum absorption induced by the aggregation inducer (=maximum aggregation=100%) was simultaneously run in a parallel batch (in the 2nd channel of the aggregometer) to each test batch and used as the 100% value. The aggregation value achieved under the action of the test substance was quoted as % of the control value (batch).
Concentration/effect curves with a random sample size of in each case n=4 were plotted with the aid of this method and IC50 values (concentration at 50% aggregation inhibition) were calculated.

[2] = target: T1, PAF receptor (Homo sapiens, UniProt P25105); assay: 3H-PAF-receptor bonding on human thrombocytes (platelets); format: binding; settings: method as in European Patent Application 368 175
T1 construct: determined using human thrombocytes; endogenous in cells; host or cells: human thrombocytes (platelets)
Method: Then, at 20° C., 18.3 g (0.12 mol) of hydroxybenzotriazole (HOBT), 23.7 g (0.109 mol) of N-4-trifluoromethylbenzyl-N-n-propylamine and 25.6 g (0.125 mol) of dicyclohexyl-carbodiimide (DCCI) and a further 250 ml of dimethylformamide (DMF) were added. The mixture was left to react for 24 hours. It was then cooled to 5° C. and filtered. 500 ml of water were added to the filtrate and it was extracted with ethyl acetate. The combined organic phases were washed with water and saturated sodium hydrogen carbonate solution, dried with magnesium sulphate and filtered over kieselguhr/char-coal. After working up in the usual way, 50 g of colourless crystals of the title compound are obtained by crystallisation from ethanol/diisopropylether (1:1). […] (The method used is described for example in European Patent Application 368 175).

T1 sequence (P25105 whole entry): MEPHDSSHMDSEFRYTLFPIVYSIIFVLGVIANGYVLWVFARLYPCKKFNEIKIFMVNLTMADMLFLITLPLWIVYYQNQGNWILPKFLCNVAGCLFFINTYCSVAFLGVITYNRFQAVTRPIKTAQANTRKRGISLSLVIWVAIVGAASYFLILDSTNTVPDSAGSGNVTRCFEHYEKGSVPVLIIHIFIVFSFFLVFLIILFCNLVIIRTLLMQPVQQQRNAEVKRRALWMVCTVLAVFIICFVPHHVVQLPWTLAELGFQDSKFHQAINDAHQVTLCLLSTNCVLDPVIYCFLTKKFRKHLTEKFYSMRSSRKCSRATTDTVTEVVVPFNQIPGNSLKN

| Structure (SMILES) | IC50 [1] | Ki [2] |
| --- | --- | --- |
| CCCCN(Cc1ccccc1)C(=O)[C@@H]1Cc2sc3c(c2C1)C(c1ccccc1Cl)=NCc1nnc(C)n1-3 [Example 7, S(-)-3-(Benzylbutylaminocarbonyl)-5-(2-chlorophenyl)-10-methyl-7H-cyclopenta[4,5]thieno-[3,2-f][1,2,4]triazolo-[4,3-a][1,4]diazepine] | 0.084 µM |  |
| CCN(Cc1ccccc1)C(=O)[C@@H]1Cc2sc3c(c2C1)C(c1ccccc1Cl)=NCc1nnc(C)n1-3 [Example 6, S(-)-3-(Benzylethylaminocarbonyl)-5-(2-chlorophenyl)-10-methyl-7H-cyclopenta[4,5]thieno[3,2-f][1,2,4]triazolo-[4,3-a][1,4]diazepine] | 0.023 µM |  |
| CCCN(Cc1ccc(C(F)(F)F)cc1)C(=O)[C@@H]1Cc2sc3c(c2C1)C(c1ccccc1Cl)=NCc1nnc(C)n1-3 [Example 18] |  | 0.0018 µM |
| Cc1nnc2n1-c1sc3c(c1C(c1ccccc1Cl)=NC2)C[C@H](C(=O)N(Cc1ccccc1)Cc1ccccc1)C3 [Example 10, S(--)-3-(Dibenzylaminocarbonyl)-5-(2-chlorophenyl)-10-methyl-7H-cyclopenta[4,5]thieno-[3,2-f][1,2,4]-triazolo-[4,3-a][1,4]diazepine] | 0.037 µM |  |
| CCCN(Cc1ccccc1)C(=O)[C@@H]1Cc2sc3c(c2C1)C(c1ccccc1Cl)=NCc1nnc(C)n1-3 [Example 2, S(-)-3-(Benzylpropylaminocarbonyl)-5-(2-chlorophenyl)-10-methyl-7H-cyclopenta[4,5]thieno[3,2-f][1,2,4]-triazolo-[4,3-a][1,4]diazepine] | 0.049 µM |  |
